Data: publication PMC12300041, “Tricyclic Isatin Derivatives as Anti-Inflammatory Compounds with High Kinase Binding Affinity” (Molecules, 2025)

What was measured:
Experiment in all cases: KINOMEscan
Assay type in all cases: binding
ABL1 (Q252H)-non-P = molecular target: T1, ABL1 (Q252H)-non-P (Homo sapiens, UniProt P00519, Q252H)
T1 construct: purchased Eurofins DiscoverX KINOMEscan
Outline: (§1)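 Dissociation constants derive from a 12-point, half-log compound titration (highest 33 μM). Each binding reaction ran 1 h at room temperature before qPCR quantification of kinase captured on an immobilized affinity ligand.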

ACVR2A = molecular target: T2, ACVR2A (Homo sapiens, UniProt P27037)
T2 construct: purchased Eurofins DiscoverX KINOMEscan
Outline: (§2)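 Kd determination: 12-pt half-log series, top 33 μM; 1 h binding, RT; unbound kinase pulled down on immobilized ligand, measured by qPCR.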

PIP5K2B = molecular target: T3, PIP5K2B (Homo sapiens, UniProt P78356)
T3 construct: purchased Eurofins DiscoverX KINOMEscan
Outline: as §2

PLK1 = molecular target: T4, PLK1 (Homo sapiens, UniProt P53350)
T4 construct: purchased Eurofins DiscoverX KINOMEscan
Outline: as §1

FRK = molecular target: T5, FRK (Homo sapiens, UniProt P42685)
T5 construct: purchased Eurofins DiscoverX KINOMEscan
Outline: as §1

EPHB4 = molecular target: T6, EPHB4 (Homo sapiens, UniProt P54760)
T6 construct: purchased Eurofins DiscoverX KINOMEscan
Outline: as §2

EPHB1 = molecular target: T7, EPHB1 (Homo sapiens, UniProt P54762)
T7 construct: purchased Eurofins DiscoverX KINOMEscan
Outline: as §2

DRAK1 = molecular target: T8, DRAK1 (Homo sapiens, UniProt Q9UEE5)
T8 construct: purchased Eurofins DiscoverX KINOMEscan
Outline: as §1

[1] = molecular target: T9, RPS6KA4 (Kin. Dom.2-C-term.) (Homo sapiens, UniProt O75676)
T9 construct: RPS6KA4 (Kin. Dom.2-C-term.); purchased Eurofins DiscoverX KINOMEscan
Outline: as §1

KIT (V559D, T670I) = molecular target: T10, KIT (V559D, T670I) (Homo sapiens, UniProt P10721, T670I/V559D)
T10 construct: purchased Eurofins DiscoverX KINOMEscan
Outline: as §1

PIP5K1A = molecular target: T11, PIP5K1A (Homo sapiens, UniProt Q99755)
T11 construct: purchased Eurofins DiscoverX KINOMEscan
Outline: as §1

ALK = molecular target: T12, ALK (Homo sapiens, UniProt Q9UM73)
T12 construct: purchased Eurofins DiscoverX KINOMEscan
Outline: as §1

TIE2 = molecular target: T13, TIE2 (Homo sapiens, UniProt Q02763)
T13 construct: purchased Eurofins DiscoverX KINOMEscan
Outline: as §1

MAP3K2 = molecular target: T14, MAP3K2 (Homo sapiens, UniProt Q9Y2U5)
T14 construct: purchased Eurofins DiscoverX KINOMEscan
Outline: as §1

MLCK = molecular target: T15, MLCK (Homo sapiens, UniProt Q32MK0)
T15 construct: purchased Eurofins DiscoverX KINOMEscan
Outline: as §1

EPHA3 = molecular target: T16, EPHA3 (Homo sapiens, UniProt P29320)
T16 construct: purchased Eurofins DiscoverX KINOMEscan
Outline: as §1

PAK7 = molecular target: T17, PAK7 (Homo sapiens, UniProt Q9P286)
T17 construct: purchased Eurofins DiscoverX KINOMEscan
Outline: as §1

EPHA7 = molecular target: T18, EPHA7 (Homo sapiens, UniProt Q15375)
T18 construct: purchased Eurofins DiscoverX KINOMEscan
Outline: as §1

LTK = molecular target: T19, LTK (Homo sapiens, UniProt P29376)
T19 construct: purchased Eurofins DiscoverX KINOMEscan
Outline: as §1

MTOR = molecular target: T20, MTOR (Homo sapiens, UniProt P42345)
T20 construct: purchased Eurofins DiscoverX KINOMEscan
Outline: as §2

PDPK1 = molecular target: T21, PDPK1 (Homo sapiens, UniProt O15530)
T21 construct: purchased Eurofins DiscoverX KINOMEscan
Outline: as §1

AURKB = molecular target: T22, AURKB (Homo sapiens, UniProt Q96GD4)
T22 construct: purchased Eurofins DiscoverX KINOMEscan
Outline: as §1

NEK11 = molecular target: T23, NEK11 (Homo sapiens, UniProt Q8NG66)
T23 construct: purchased Eurofins DiscoverX KINOMEscan
Outline: as §2

EGFR (L858R, T790M) = molecular target: T24, EGFR (L858R, T790M) (Homo sapiens, UniProt P00533, L858R/T790M)
T24 construct: purchased Eurofins DiscoverX KINOMEscan
Outline: as §2

PIK3CA (C420R) = molecular target: T25, PIK3CA (C420R) (Homo sapiens, UniProt P42336, C420R)
T25 construct: purchased Eurofins DiscoverX KINOMEscan
Outline: as §1

MAP4K4 = molecular target: T26, MAP4K4 (Homo sapiens, UniProt O95819)
T26 construct: purchased Eurofins DiscoverX KINOMEscan
Outline: as §1

[2] = molecular target: T27, RSK2 (Kin. Dom.2-C-term.) (Homo sapiens, UniProt P51812)
T27 construct: RSK2 (Kin. Dom.2-C-term.); purchased Eurofins DiscoverX KINOMEscan
Outline: as §1

PCTK3 = molecular target: T28, PCTK3 (Homo sapiens, UniProt Q07002)
T28 construct: purchased Eurofins DiscoverX KINOMEscan
Outline: as §1

[3] = molecular target: T29, RSK1 (Kin. Dom.2-C-term.) (Homo sapiens, UniProt Q15418)
T29 construct: RSK1 (Kin. Dom.2-C-term.); purchased Eurofins DiscoverX KINOMEscan
Outline: as §1

LCK = molecular target: T30, LCK (Homo sapiens, UniProt P06239)
T30 construct: purchased Eurofins DiscoverX KINOMEscan
Outline: as §2

LKB1 = molecular target: T31, LKB1 (Homo sapiens, UniProt Q15831)
T31 construct: purchased Eurofins DiscoverX KINOMEscan
Outline: as §2

AMPK-α1 = molecular target: T32, AMPK-α1 (Homo sapiens, UniProt Q13131)
T32 construct: purchased Eurofins DiscoverX KINOMEscan
Outline: as §2

CSF1R = molecular target: T33, CSF1R (Homo sapiens, UniProt P07333)
T33 construct: purchased Eurofins DiscoverX KINOMEscan
Outline: as §1

ROCK2 = molecular target: T34, ROCK2 (Homo sapiens, UniProt O75116)
T34 construct: purchased Eurofins DiscoverX KINOMEscan
Outline: as §2

NEK5 = molecular target: T35, NEK5 (Homo sapiens, UniProt Q6P3R8)
T35 construct: purchased Eurofins DiscoverX KINOMEscan
Outline: as §1

ABL1 (E255K)-P = molecular target: T36, ABL1 (E255K)-P (Homo sapiens, UniProt P00519, E255K)
T36 construct: purchased Eurofins DiscoverX KINOMEscan
Outline: as §1

CAMK2G = molecular target: T37, CAMK2G (Homo sapiens, UniProt Q13555)
T37 construct: purchased Eurofins DiscoverX KINOMEscan
Outline: as §2

T21 sequence (O15530 whole entry): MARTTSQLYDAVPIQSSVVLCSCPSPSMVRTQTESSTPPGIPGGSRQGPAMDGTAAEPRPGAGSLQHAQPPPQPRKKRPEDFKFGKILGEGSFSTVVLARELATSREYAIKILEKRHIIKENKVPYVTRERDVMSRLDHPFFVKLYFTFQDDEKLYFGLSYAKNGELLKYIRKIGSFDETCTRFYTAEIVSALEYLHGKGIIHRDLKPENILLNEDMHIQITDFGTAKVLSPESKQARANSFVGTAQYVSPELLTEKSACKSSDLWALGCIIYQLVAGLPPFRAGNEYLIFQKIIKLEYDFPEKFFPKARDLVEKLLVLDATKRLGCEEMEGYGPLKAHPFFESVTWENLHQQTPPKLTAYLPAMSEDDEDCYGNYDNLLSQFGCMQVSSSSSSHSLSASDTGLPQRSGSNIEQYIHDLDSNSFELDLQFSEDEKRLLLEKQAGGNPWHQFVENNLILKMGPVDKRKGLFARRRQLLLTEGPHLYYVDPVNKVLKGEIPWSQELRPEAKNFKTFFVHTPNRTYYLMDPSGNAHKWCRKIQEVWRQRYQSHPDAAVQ
T22 sequence (Q96GD4 whole entry): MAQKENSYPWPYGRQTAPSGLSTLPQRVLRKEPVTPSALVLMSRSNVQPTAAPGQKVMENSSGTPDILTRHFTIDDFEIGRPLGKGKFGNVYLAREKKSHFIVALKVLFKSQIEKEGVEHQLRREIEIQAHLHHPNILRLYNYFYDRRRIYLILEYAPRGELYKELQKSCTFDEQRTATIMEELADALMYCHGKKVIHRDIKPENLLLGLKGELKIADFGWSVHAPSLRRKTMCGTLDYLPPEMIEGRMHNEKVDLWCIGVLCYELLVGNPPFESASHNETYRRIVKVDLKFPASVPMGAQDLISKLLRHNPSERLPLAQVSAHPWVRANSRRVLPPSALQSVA
T24 sequence (P00533 25-1210 T790M/L858R): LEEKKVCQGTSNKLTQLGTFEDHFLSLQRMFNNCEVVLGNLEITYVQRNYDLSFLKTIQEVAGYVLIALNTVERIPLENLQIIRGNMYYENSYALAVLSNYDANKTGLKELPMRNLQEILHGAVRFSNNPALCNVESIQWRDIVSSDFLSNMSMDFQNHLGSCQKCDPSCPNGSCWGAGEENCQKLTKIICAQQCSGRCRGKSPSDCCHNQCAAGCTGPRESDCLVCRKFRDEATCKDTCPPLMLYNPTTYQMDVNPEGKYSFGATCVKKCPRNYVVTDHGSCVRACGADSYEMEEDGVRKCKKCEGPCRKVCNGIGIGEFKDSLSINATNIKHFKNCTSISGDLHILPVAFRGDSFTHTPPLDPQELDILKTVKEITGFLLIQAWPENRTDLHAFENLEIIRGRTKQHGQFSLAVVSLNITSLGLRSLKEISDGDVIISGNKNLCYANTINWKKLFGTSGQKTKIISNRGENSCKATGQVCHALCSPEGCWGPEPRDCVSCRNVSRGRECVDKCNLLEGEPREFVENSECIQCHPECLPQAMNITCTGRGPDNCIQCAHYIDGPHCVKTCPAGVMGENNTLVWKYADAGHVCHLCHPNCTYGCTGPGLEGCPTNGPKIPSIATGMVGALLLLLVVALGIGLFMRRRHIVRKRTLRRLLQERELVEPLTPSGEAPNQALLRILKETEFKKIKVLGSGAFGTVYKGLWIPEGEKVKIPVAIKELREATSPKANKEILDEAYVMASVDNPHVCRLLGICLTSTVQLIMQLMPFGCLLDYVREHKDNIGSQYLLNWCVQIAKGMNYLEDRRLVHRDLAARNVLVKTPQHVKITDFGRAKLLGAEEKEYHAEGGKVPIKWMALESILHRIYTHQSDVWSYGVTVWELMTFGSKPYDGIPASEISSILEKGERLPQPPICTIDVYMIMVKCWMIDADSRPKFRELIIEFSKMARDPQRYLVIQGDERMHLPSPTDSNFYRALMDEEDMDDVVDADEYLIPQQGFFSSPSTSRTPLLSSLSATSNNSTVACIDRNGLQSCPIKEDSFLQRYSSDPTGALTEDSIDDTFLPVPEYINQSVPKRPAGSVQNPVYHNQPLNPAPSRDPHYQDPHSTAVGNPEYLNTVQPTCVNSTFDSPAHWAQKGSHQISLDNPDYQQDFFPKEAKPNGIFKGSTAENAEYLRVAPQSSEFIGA
T5 sequence (P42685 whole entry): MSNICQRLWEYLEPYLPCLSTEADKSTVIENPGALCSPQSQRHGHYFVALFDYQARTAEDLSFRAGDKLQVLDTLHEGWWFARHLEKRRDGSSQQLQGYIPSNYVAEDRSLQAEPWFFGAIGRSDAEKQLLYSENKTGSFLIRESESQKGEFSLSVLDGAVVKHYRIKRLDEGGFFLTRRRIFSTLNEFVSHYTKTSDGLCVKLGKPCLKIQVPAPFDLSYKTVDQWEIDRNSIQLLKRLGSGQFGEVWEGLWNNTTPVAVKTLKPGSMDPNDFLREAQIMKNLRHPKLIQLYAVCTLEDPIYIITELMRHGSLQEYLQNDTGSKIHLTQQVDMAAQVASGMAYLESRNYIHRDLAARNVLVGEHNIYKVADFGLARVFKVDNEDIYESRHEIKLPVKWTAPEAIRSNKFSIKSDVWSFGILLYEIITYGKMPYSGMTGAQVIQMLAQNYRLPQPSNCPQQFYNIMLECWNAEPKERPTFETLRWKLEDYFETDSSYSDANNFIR
T15 sequence (Q32MK0 whole entry): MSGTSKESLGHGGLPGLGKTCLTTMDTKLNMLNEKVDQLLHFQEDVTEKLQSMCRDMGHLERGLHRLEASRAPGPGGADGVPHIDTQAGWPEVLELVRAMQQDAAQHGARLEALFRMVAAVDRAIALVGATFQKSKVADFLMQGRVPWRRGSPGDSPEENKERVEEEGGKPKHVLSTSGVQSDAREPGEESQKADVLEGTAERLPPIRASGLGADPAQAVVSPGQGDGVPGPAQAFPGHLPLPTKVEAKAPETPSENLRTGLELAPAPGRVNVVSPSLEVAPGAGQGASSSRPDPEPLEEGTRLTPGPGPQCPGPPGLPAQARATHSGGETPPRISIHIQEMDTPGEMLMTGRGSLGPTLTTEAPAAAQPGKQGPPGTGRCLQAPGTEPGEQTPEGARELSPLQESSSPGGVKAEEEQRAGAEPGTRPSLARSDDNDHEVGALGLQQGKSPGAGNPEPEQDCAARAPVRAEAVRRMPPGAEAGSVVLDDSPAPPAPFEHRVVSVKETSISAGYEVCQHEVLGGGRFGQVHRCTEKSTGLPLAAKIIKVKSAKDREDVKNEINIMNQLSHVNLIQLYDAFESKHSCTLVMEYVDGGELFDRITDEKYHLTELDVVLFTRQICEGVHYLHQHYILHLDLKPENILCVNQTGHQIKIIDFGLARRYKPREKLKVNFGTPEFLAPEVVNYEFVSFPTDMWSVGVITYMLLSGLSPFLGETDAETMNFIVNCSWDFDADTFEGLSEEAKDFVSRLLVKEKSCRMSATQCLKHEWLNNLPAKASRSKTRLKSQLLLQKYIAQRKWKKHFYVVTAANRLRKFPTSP
T27 sequence (P51812 398-740 limits assumed): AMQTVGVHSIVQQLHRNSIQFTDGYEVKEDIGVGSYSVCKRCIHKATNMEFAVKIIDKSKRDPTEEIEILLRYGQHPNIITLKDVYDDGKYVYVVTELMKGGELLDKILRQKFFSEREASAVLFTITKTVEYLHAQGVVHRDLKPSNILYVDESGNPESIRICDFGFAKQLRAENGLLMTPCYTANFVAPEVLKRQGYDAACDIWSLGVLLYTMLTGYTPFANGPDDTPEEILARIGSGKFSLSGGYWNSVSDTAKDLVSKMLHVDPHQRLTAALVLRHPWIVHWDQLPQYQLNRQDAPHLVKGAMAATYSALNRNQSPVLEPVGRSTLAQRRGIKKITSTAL
T33 sequence (P07333 20-972): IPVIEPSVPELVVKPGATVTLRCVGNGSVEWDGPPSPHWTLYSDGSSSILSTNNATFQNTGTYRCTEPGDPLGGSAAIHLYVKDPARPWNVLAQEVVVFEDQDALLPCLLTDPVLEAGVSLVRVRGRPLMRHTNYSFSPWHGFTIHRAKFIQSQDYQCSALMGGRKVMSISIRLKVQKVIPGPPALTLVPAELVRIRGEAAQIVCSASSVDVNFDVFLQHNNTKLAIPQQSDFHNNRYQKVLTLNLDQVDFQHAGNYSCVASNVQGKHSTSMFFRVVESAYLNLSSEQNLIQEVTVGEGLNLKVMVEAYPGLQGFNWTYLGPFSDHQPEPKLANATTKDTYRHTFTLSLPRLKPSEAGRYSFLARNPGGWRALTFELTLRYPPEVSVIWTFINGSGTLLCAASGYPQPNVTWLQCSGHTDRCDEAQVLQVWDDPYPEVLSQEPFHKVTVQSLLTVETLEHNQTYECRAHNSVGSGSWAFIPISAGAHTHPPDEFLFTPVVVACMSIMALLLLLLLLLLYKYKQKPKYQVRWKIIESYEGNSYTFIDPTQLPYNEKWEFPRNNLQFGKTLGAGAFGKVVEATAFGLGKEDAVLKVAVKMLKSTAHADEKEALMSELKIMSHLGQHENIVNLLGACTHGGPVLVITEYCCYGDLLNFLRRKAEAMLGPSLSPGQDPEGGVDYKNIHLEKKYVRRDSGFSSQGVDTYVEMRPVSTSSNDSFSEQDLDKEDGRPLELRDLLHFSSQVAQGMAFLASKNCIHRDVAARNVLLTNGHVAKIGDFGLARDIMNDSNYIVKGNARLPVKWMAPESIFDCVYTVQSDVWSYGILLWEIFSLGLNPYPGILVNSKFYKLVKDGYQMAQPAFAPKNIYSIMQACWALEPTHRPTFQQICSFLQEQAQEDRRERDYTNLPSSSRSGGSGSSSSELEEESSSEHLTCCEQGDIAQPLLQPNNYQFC
T29 sequence (Q15418 392-735 limits assumed): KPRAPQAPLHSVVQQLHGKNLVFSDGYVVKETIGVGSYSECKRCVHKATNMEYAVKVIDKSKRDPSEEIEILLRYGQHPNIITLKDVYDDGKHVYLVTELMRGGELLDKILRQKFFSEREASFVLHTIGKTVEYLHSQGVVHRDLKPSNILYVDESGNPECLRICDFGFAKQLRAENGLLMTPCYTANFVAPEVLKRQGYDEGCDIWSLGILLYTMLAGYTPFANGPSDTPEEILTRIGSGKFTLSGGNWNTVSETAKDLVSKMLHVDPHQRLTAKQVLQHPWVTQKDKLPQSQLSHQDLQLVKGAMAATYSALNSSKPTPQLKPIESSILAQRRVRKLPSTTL

## O=C1Nc2c(cc([N+](=O)[O-])c3c2CCCC3)C1=NO [Compound 5d, 3-(Hydroxyimino)-5-nitro-1,3,6,7,8,9-hexahydro-2H-benzo[g]indol-2-one]
ABL1 (Q252H)-non-P
  inhibition at 10 µM: 55%
ACVR2A
  inhibition at 10 µM: 10%
PIP5K2B
  inhibition at 10 µM: 64%
PLK1
  inhibition at 10 µM: 71%
FRK
  inhibition at 10 µM: 0%
EPHB4
  inhibition at 10 µM: 0%
EPHB1
  inhibition at 10 µM: 0%
DRAK1
  inhibition at 10 µM: 76%
[1]
  inhibition at 10 µM: 89.3%
KIT (V559D, T670I)
  inhibition at 10 µM: 55%
PIP5K1A
  inhibition at 10 µM: 54%
ALK
  inhibition at 10 µM: 46%
TIE2
  inhibition at 10 µM: 21%
MAP3K2
  inhibition at 10 µM: 79%
MLCK
  inhibition at 10 µM: 11%
EPHA3
  inhibition at 10 µM: 45%
PAK7
  inhibition at 10 µM: 55%
EPHA7
  inhibition at 10 µM: 9%
LTK
  inhibition at 10 µM: 64%
MTOR
  inhibition at 10 µM: 56%
PDPK1
  inhibition at 10 µM: 8%
AURKB
  inhibition at 10 µM: 90.7%
NEK11
  inhibition at 10 µM: 46%
EGFR (L858R, T790M)
  inhibition at 10 µM: 2%
PIK3CA (C420R)
  inhibition at 10 µM: 0%
MAP4K4
  inhibition at 10 µM: 47%
[2]
  inhibition at 10 µM: 0%
PCTK3
  inhibition at 10 µM: 0%
[3]
  inhibition at 10 µM: 60%
LCK
  inhibition at 10 µM: 29%
LKB1
  inhibition at 10 µM: 0%
AMPK-α1
  inhibition at 10 µM: 28%
CSF1R
  inhibition at 10 µM: 0%
ROCK2
  inhibition at 10 µM: 54%
NEK5
  inhibition at 10 µM: 7%
ABL1 (E255K)-P
  inhibition at 10 µM: 57%
CAMK2G
  inhibition at 10 µM: 25%
